For the data set, the system named is normal, human-derived epidermal keratinocytes. In words: EPIDERM Skin Model In Vitro Toxicity Testing System, dermal irritancy potential (ET-50 test). As to conditions: time at which percent viability equals 50%. As for the experimental part: Applicants' jojobate carboxylate/jojoba alcohol/glycol formulation of Example I was evaluated by MatTek Corporation using an EPIDERM Skin Model In Vitro Toxicity Testing System.
The percentage of viable cells was then determined for each test sample using a spectrophotometric analysis at 570 nm. Thereafter, a semi-log plot of the percent viabilities, on the linear Y axis, versus the dosing times, on the log X axis. By interpolation, the time which the percent viability would equal 50%, i.e. the ET-50 time, was determined.

With `CCCCCCCCCCCCOS(=O)(=O)[O-].[Na+]` [Sodium Lauryl Sulfate], the ET-50 time result is listed as “less than 1 hours”.
Triton X returned an ET-50 time of 3.7 h.

Values taken from US20070286839A1, “COMPOSITION COMPRISING JOJOBA CARBOXYLATES IN COMBINATION WITH JOJOBA ALCOHOL AND COSMETIC FORMULATION COMPRISING SAME” (priority 2006, published 2007).
